Article PMC7181131, “N-Pyrazinoyl Substituted Amino Acids as Potential Antimycobacterial Agents—the Synthesis and Biological Evaluation of Enantiomers” (Molecules, 2020)
≈ marks a conversion by molar mass, not a printed value. Read-outs that look alike come from different tables or passages of the source.

Columns and labels:
[1] = tested on: Lichtheimia corymbifera CCM 8077; experiment: Antifungal microdilution broth method, LC; format: cell-based; details: CCM8077, 48 h, read-out: MIC LC
[2] = tested on: Mycobacterium tuberculosis H37Rv CNCTC My 331/88 (ATCC 27294); experiment: Antimycobacterial pre-screening, microdilution broth, Mtb H37Rv; format: cell-based; details: Middlebrook 7H9 broth of declared pH 6.6
[3] = tested on: Candida tropicalis CCM 8264 (ATCC 750); experiment: Antifungal microdilution broth method, CT; format: cell-based; details: 24 h, read-out: MIC CT
[4] = tested on: Aspergillus flavus CCM 8363; experiment: Antifungal microdilution broth method, AFla; format: cell-based; details: CCM8363, read after 48 h (filamentous fungi), read-out: MIC AFla
[5] = tested on: Mycobacterium aurum DSM 43999 (ATCC 23366); experiment: Microplate Alamar Blue Assay (MABA) microdilution, M. aurum; format: cell-based
[6] = tested on: M. avium ssp. avium CNCTC My 80/72 (ATCC 15769); experiment: Antimycobacterial pre-screening, microdilution broth, M. avium; format: cell-based; details: Mycobacterium avium, ATCC15769; Middlebrook 7H9 broth of declared pH 6.6
[7] = tested on: M. smegmatis DSM 43465 (ATCC 607); experiment: Microplate Alamar Blue Assay (MABA) microdilution, M. smegmatis; format: cell-based, Mycobacterium smegmatis
[8] = tested on: Trichophyton interdigitale CCM 8377 (ATCC 9533); experiment: Antifungal microdilution broth method, TI; format: cell-based; details: 48 h, read-out: MIC TI
[9] = tested on: Candida albicans CCM 8320 (ATCC 24433); experiment: Antifungal microdilution broth method, CA; format: cell-based; details: 24 h, read-out: MIC CA
[10] = tested on: Staphylococcus epidermidis CCM 4418 (ATCC 12228); experiment: Antibacterial microdilution broth method, SE; format: cell-based; details: 24 h, read-out: MIC SE
[11] = tested on: Mycobacterium tuberculosis H37Rv CNCTC My 331/88 (ATCC 27294); design: method as in doi:10.3184/030823407×200001; details: study by Pinheiro et al. ref 32; cited from earlier work
[12] = tested on: Candida krusei CCM 8271 (ATCC 6258); experiment: Antifungal microdilution broth method, CK; format: cell-based; details: Pichia kudriavzevii, 24 h, read-out: MIC CK
[13] = tested on: Aspergillus fumigatus ATCC 204305; experiment: Antifungal microdilution broth method, AF; format: cell-based; details: ATCC204305, 48 h, read-out: MIC AF
[14] = tested on: M. kansasii CNCTC My 235/80 (ATCC 12478); experiment: Antimycobacterial pre-screening, microdilution broth, M. kansasii; format: cell-based; details: Mycobacterium kansasii, ATCC12478; Middlebrook 7H9 broth of declared pH 6.6
[15] = tested on: Candida parapsilosis CCM 8260 (ATCC 22019); experiment: Antifungal microdilution broth method, CP; format: cell-based; details: Lodderomyces parapsilosis, 24 h, read-out: MIC CP
HepG2 cell line = experiment: HepG2 cytotoxicity, CellTiter 96 (MTS) assay; format: cell-based, human; details: Homo sapiens, read-out: HepG2 IC50
[16] = tested on: Mtb H37Ra ITM-M006710 (ATCC 9431); experiment: Microplate Alamar Blue Assay (MABA) microdilution, Mtb H37Ra; format: cell-based, Mycobacterium tuberculosis; details: Mycobacterium tuberculosis
[17] = Solubility in the cultivation medium of the antibacterial and antifungal screening; details: for solubility in the cultivation medium: antibacterial testing medium; for solubility in the medium: antifungal testing medium
[18] = tested on: Klebsiella pneumoniae CCM 4415 (ATCC 10031); experiment: Antibacterial microdilution broth method, KP; details: read after 24 h of incubation
[19] = Mycolicibacterium aurum, pH 6, read-out: MIC M. aurum µg/mL
[20] = Mycolicibacterium aurum, pH 6.6, read-out: MIC M. aurum
[21] = Mycolicibacterium smegmatis, pH 6, read-out: MIC M. smegmatis µg/mL
[22] = Mycolicibacterium smegmatis, pH 6.6, read-out: MIC M. smegmatis
[23] = pH 6.6, read-out: MIC Mtb H37Ra
[24] = pH 6, calculated from µg/mL, read-out: MIC Mtb H37Ra
[25] = Mycolicibacterium aurum, pH 6; read-out: MIC M. aurum
[26] = Mycolicibacterium aurum, pH 6.6; read-out: MIC M. aurum
[27] = Mycolicibacterium smegmatis, pH 6; read-out: MIC M. smegmatis
[28] = Mycolicibacterium smegmatis, pH 6.6; read-out: MIC M. smegmatis

Structure (SMILES)	MIC [1] [µM]	MIC [2] [µg/mL]	MIC [3] [µM]	MIC [4] [µM]	MIC [5, 19] [µg/mL]	MIC [5, 20] [µg/mL]	MIC [6] [µg/mL]	MIC [7, 21] [µg/mL]	MIC [7, 22] [µg/mL]	MIC [8] [µM]	MIC [9] [µM]	MIC [10] [µM]	MIC [12] [µM]	MIC [13] [µM]	MIC [14] [µg/mL]	MIC [15] [µM]	MIC ([16]; pH 6) [µg/mL]	MIC ([16]; pH 6, read-out: MIC Mtb H37Ra) [µg/mL]	MIC [16, 23] [µg/mL]	MIC [16, 24] [µM]	further results
C=C(NC(=O)c1cnccn1)C(=O)OC [PC-MeAcr, methyl 2-(pyrazine-2-carboxamido)acrylate]	> 125	50 (≈ 241 µM)	> 125	> 125	62.5 (≈ 302 µM)	62.5 (≈ 302 µM)	> 100	≥ 125	31.2 (≈ 151 µM)	> 125	> 125	> 125	> 125	> 125	100 (≈ 483 µM)	> 125	62.5	62.5	15.6	302	MIC on Mtb H37Rv [11]: 50 µg/mL (≈ 241 µM); IC50 (HepG2 cell line; HepG2, 24 h): > 500 µM; MIC ([16]; pH 6, read-out: Mtb pH 6 MIC): 302 µM
CC[C@@H](C)[C@@H](NC(=O)c1cnccn1)C(=O)OC [PC-D-Ile-Me, methyl (pyrazine-2-carbonyl)-D-isoleucinate]																	250	250	≥ 500	995	MIC [5, 25]: 250 µg/mL (≈ 995 µM); MIC [5, 26]: ≥ 500 µg/mL; MIC [7, 27]: 250 µg/mL (≈ 995 µM); MIC [7, 28]: ≥ 500 µg/mL; solubility in the cultivation medium [17]: insoluble; solubility in the medium [17]: insoluble
CCOC(=O)[C@H](Cc1ccccc1)NC(=O)c1cnccn1 (racemic) [PC-DL-Phe-Et, ethyl (pyrazine-2-carbonyl)phenylalaninate]	> 500	> 100	> 500	> 500	62.5 (≈ 209 µM)	≥ 500	> 100	≥ 125	250 (≈ 835 µM)	> 500	> 500	500 (≈ 150 µg/mL)	> 500	> 500	> 100	> 500	31.2	31.2	250	104	MIC KP [18]: > 500 µM
COC(=O)[C@@H](CC(C)C)NC(=O)c1cnccn1 [PC-D-Leu-Me, methyl (pyrazine-2-carbonyl)-D-leucinate]	> 500	> 100	> 500	> 500	≥ 125	≥ 500	> 100	≥ 125	250 (≈ 995 µM)	> 500	> 500	> 500	> 500	> 500	> 100	> 500	≥ 125	≥ 125	≥ 500	≥ 497	MIC KP [18]: > 500 µM
O=C(N[C@H](CO)C(=O)O)c1cnccn1 [PC-D-Ser, (pyrazine-2-carbonyl)-D-serine]	> 500	> 100	> 500	> 500	62.5 (≈ 296 µM)	≥ 500	> 100	125 (≈ 592 µM)	≥ 500	500 (≈ 106 µg/mL)	> 500	> 500	> 500	> 500	> 100	> 500	≥ 250	≥ 250	≥ 500	≥ 1180	MIC KP [18]: > 500 µM
COC(=O)[C@H](CC(C)C)NC(=O)c1cnccn1 [PC-L-Leu-Me, methyl (pyrazine-2-carbonyl)-L-leucinate]	> 500	100 (≈ 398 µM)	> 500	> 500	≥ 125	≥ 500	> 100	≥ 125	250 (≈ 995 µM)	> 500	> 500	500 (≈ 126 µg/mL)	> 500	> 500	> 100	> 500	≥ 125	≥ 125	250	≥ 497	MIC KP [18]: > 500 µM
O=C(O)CNC(=O)c1cnccn1 [PC-Gly, (pyrazine-2-carbonyl)glycine]	> 500	> 100	> 500	> 500	≥ 125	≥ 500	> 100	≥ 125	≥ 500	> 500	> 500	> 500	500 (≈ 90.6 µg/mL)	> 500	> 100	> 500	≥ 125	≥ 125	≥ 500	≥ 690	MIC KP [18]: > 500 µM
CCOC(=O)[C@H](CC(C)C)NC(=O)c1cnccn1 (racemic) [PC-DL-Leu-Et, ethyl (pyrazine-2-carbonyl)leucinate]	> 500	100 (≈ 377 µM)	> 500	> 500	≥ 125	250 (≈ 942 µM)	> 100	≥ 125	250 (≈ 942 µM)	> 500	> 500	> 500	> 500	> 500	> 100	> 500	15.6	15.6	250	58.9	MIC KP [18]: > 500 µM; IC50 (HepG2 cell line; HepG2, 24 h incubation, CellTiter 96): 788 µM; MIC ([16]; pH 6, Table 4, read-out: Mtb pH 6 MIC): 59 µM
CC[C@H](C)[C@H](NC(=O)c1cnccn1)C(=O)OC [PC-L-Ile-Me, methyl (pyrazine-2-carbonyl)-L-isoleucinate]																	250	250	≥ 500	995	MIC [5, 25]: ≥ 500 µg/mL; MIC [5, 26]: ≥ 500 µg/mL; MIC [7, 27]: ≥ 500 µg/mL; MIC [7, 28]: ≥ 500 µg/mL; solubility in the cultivation medium [17]: insoluble; solubility in the medium [17]: insoluble
CCOC(=O)[C@@H](NC(=O)c1cnccn1)C(C)C (racemic) [PC-DL-Val-Et, ethyl (pyrazine-2-carbonyl)valinate]	> 500	> 100	> 500	> 500	≥ 125	≥ 500	> 100	≥ 125	250 (≈ 995 µM)	> 500	> 500	> 500	> 500	> 500	> 100	> 500	≥ 125	≥ 125	≥ 500	≥ 497	MIC KP [18]: > 500 µM
C[C@@H](NC(=O)c1cnccn1)C(=O)O [PC-D-Ala, (pyrazine-2-carbonyl)-D-alanine]	> 500	> 100	> 500	> 500	62.5 (≈ 320 µM)	≥ 500	> 100	≥ 125	≥ 500	> 500	> 500	> 500	> 500	> 500	> 100	> 500	≥ 125	≥ 125	≥ 500	≥ 640	MIC KP [18]: > 500 µM
COC(=O)C[C@@H](NC(=O)c1cnccn1)C(=O)OC [PC-D-Asp-diMe, dimethyl (pyrazine-2-carbonyl)-D-aspartate]						≥ 125			≥ 125								≥ 125	≥ 125	≥ 125	≥ 468	MIC [5, 25]: ≥ 125 µg/mL; MIC [7, 27]: ≥ 125 µg/mL; solubility in the cultivation medium [17]: insoluble; solubility in the medium [17]: insoluble
